In publication PMC12124721, “Impact of Fluorine Pattern on Lipophilicity and Acid–Base Properties of 2‑(Thiofluoroalkyl)pyridines: Insights from Experiments and Statistical Modeling” (Journal of Medicinal Chemistry, 2025):
“And” between values parts separate entries of the source, which are not always exact repeats. Identical values can stand only once. “Also recorded” adds a separate entry of the source.

Columns and labels:
[1] = set-up: method as in earlier work; conditions: thiofluoroalkyl benzenes; logP (=logD7.4) measured indirectly by HPLC retention times; ref 36 (SI), O'Hagan group; cited from earlier work
[2] = logD7.4 by 19F NMR shake-flask partitioning (Linclau method); format: physicochemical; conditions: for logD: 1-octanol/phosphate buffer; for logD (single replicate): Table S1, individual 19F NMR partitioning experiments
Method: LogD ^7.4 (pH 7.4) measurements of the 2-(thiofluoroalkyl)-pyridines were conducted according to a method developed by Linclau and coworkers, a variation on the traditional “shake-flask” partitioning between octanol and water. Together with a fluorinated internal standard of known lipophilicity, simple ^19F NMR experiments allowed for the calculation of the logD ^7.4 value of the compound of interest through integration of NMR signals in each phase. During our experiments, no difference between logD ^7.4 and logP values was observed, probably due to the low basicity of the pyridines. Nonetheless, for the sake of consistency, logD ^7.4 was deemed the appropriate parameter for evaluating lipophilicity.
A protocol developed by the group of Linclau was followed for the determination of the log D ^7.4 values of the 2-substituted pyridines. The 4-step process was replicated three times for each compound: • Partitioning: to a 10 mL pear-shaped flask were added 2 mL of 1-octanol, 2-substituted pyridine (1–10 mg), trifluoroethanol (5 μL), and 2 mL of phosphate buffer (pH 7.4). The resulting mixture was stirred at 25 °C for 2 h by controlling the temperature by an immersion cooler, and then, it was left to stand at 25 °C overnight to enable complete phase separation. • Sample preparation: using a 1 mL disposable syringe, an aliquot of 0.6 mL was carefully taken from the aqueous or the 1-octanol phase. Next, the needle was carefully wiped with a dry tissue, and the aliquot was placed into an NMR tube, followed by addition of 0.1 mL of acetone-d 6. The NMR tubes were sealed using a rubber septum stopper and shaken to obtain a homogeneous solution for NMR measurement. When taking an aliquot of the lower water phase, to avoid the contamination of the syringe with the upper octanol phase, 0.05 mL of air was taken into the syringe before putting the needle into the solution, and while immersing it through the upper octanol layer, the air was gently pushed out. Upon reaching the water phase, all air bubbles are pushed out of the syringe, the aliquot is taken, and the needle is quickly removed from the solution. Then, a small amount of the water phase was discarded to ensure all traces of octanol are out of the needle, leaving a 0.6 mL sample in the syringe. • NMR measurement: fluorine (^19F{1H} NMR) nuclear magnetic resonance spectra were recorded on a Varian Mercury spectrometer or Bruker Avance Ultrashield (376.5 MHz for ^19F NMR). Parameters used in the determination of lipophilicities were obtained from the experiments carried out by Linclau and coworkers. First, the sealed tube was inserted to the NMR spectrometer, and following automatic locking and gradient shimming, a simple ^19F spectrum was recorded on the nonspinning sample to assess the required spectral width (SW) and frequency offset point (O1P). The O1P is centered between the two diagnostic F signals, and the spectral width (SW) is left at 200 ppm (it can be reduced if a better S/N ratio is required). Then, the 90° pulse was measured with the automated pulsecal routine obtaining a power (PW) of 16 μs. The measured 90° pulse, SW, and O1P were transferred into the inversion–recovery experiment. For practical purposes, it is recommended to use a D1 of 30 s for the octanol sample and of 60 s for the water sample as pulse delay, given the D1 value should be greater than 5*T1 for quantitative integration. The number of transients (NS) is selected for each sample to afford a suitable signal-to-noise ratio (SNR should be >250). • Data processing:data were processed using Mestre Nova NMR software. The obtained FID file was reprocessed using the following conditions: WFunction (LB = 2, exponential), zero filling (increasing points from 65,536 to 262,144) and then Fourier transform, followed by phasing with mouse and auto baseline correction. The integration ratio was obtained by manual integration.

[3] = logD7.4 by shake-flask HPLC-UV for nonfluorinated pyridines; format: physicochemical; conditions: for logD7.4: 1-octanol/phosphate buffer pH 7.4, HPLC-UV; for logD7.4 / logD: nonfluorinated pyridines, mean of three; for logD: 1-octanol/phosphate buffer, pH 7.4, 1-octanol/phosphate buffer pH 7.4, HPLC-UV; for logD (single sample A, B, C): Table S2, individual HPLC-UV partitionings at different buffer:octanol volume ratios, pH 7.4
Method: A protocol described by Ràfols and coworkers was followed for the determination of the log D ^7.4 values of the nonfluorinated pyridines. The 4-step process was replicated three times for each compound: • Stocksolution preparation: in a 12 mL vial, 15 mg of the pyridine was charged. Then, 6 mL of phosphate buffer at pH 7.4 was added, and the mixture was vigorously shaken for 2 h. An aliquot of this stock solution was measured by HPLC-UV. • Partitioning: three partitioning experiments were carried out for each compound. To prepare an experiment, in a vial containing a magnetic stir bar, a known amount of the stock solution was introduced, followed by another known amount of 1-octanol. Next, the biphasic mixture was stirred for 2 h and left to stand overnight to allow phase partition. For the selection of the different volume ratios, it was followed reported recommendations, although 1:1, 10:1, and 1:10 octanol:stock solutions were usually employed. • Sample preparation and measurement: to prepare the sample, 0.1 mL of the aqueous phase was taken and introduced in a 2 mL vial, following the precautions described in the previous section. The samples were then analyzed with the same HPLC-UV method as that of the stock solution. The log D ^7.4 value was obtaining by comparing the initial amount of pyridine in the aqueous phase before and after partitioning, taking into consideration the volume rates.

[4] = pKa of conjugate acid by 19F NMR titration (Leito method); format: physicochemical; conditions: aqueous solutions of different pH, conjugate acid (pyridinium), water
Method: (§1) The measurements were conducted on the corresponding conjugate acids of the thiofluoroalkylpyridines using an ^19F NMR method developed by Leito and coworkers. For nonfluorinated analogues, pK a was determined by an analogous method using ^1H NMR. […] Likewise, internal difluorination of the thioethyl group led to a more acidic pyridinium (9, pK a 2.05) compared to terminal difluorination (6, pK a 2.43). […] Computationally, it is straightforward to determine pK a values for molecular organic systems, obtaining quantitative predictions via fitting to experimental data (Table S12).
A protocol developed by the group of Leito was followed for the determination of the […] of fluorinated 2-substituted pyridines using ^19F NMR. […] Next, the tube was caped and shaken vigorously, and the pH of the resulting solution was measured inside the tube with a pH meter with an NMR-tube probe. This procedure was repeated for all of the aqueous solutions to have a battery of NMR tubes at different pH values. If needed, additional solutions were prepared to ensure a continuum of pH values. • Sample measurement: for ^19F NMR measurements, a 3 mm NMR tube containing a solution of 8 mg of KF in 1 mL of D2O was inserted into the NMR tube of interest to serve as an external standard. Next, a standard ^19F NMR experiment was recorded to determine the chemical shifts of the external standard and the sample of interest. For the ^1H method, the same protocol was applied by changing the external standard for 5 μL of trifluoroethanol instead of KF. The battery of NMR samples at different pH values was measured. • Data processing: using MestReNova NMR software, the chemical shifts of the pyridines were determined. For ^19F NMR experiments, the KF reference was set to −125.00 ppm, and the closest ^19F signal of the pyridine was chosen for the chemical shift determination. For ^1H NMR experiments, the trifluoroethanol reference (CF3CH2OH) was set to 3.14 ppm, and the methyl signals of the nonfluorinated pyridines were chosen for the chemical shift determination. Next, the selected signal for each pyridine was plotted against the pH of the measured solution. Using Prism GraphPad software, a sigmoidal curve was adjusted, and the second derivate was performed to obtain the pK a value of the given pyridine.

[5] = stability in aqueous media during logD measurement; format: physicochemical; conditions: during logD7.4 measurement period
Text: The computational model can also be employed to predict the lipophilicity of experimentally undetermined compounds such as pyridines 21 and 22 (Figure ).

[6] = pKa of conjugate acid by 1H NMR titration (nonfluorinated analogues); format: physicochemical; conditions: aqueous solutions of different pH, conjugate acid (pyridinium), water
Method: as §1
A protocol developed by the group of Leito was followed for the determination of the […] of fluorinated 2-substituted pyridines using ^19F NMR. […] Next, the tube was caped and shaken vigorously, and the pH of the resulting solution was measured inside the tube with a pH meter with an NMR-tube probe. […] Next, a standard ^19F NMR experiment was recorded to determine the chemical shifts of the external standard and the sample of interest. […] The battery of NMR samples at different pH values was measured. • Data processing: using MestReNova NMR software, the chemical shifts of the pyridines were determined. […] Next, the selected signal for each pyridine was plotted against the pH of the measured solution. […]

[7] = pH 7.4, 1-octanol/phosphate buffer pH 7.4, 25 °C, trifluoroethanol reference, 19F NMR, mean of three, read-out: logD7.4
[8] = pH 7.4, Table S1, individual 19F NMR partitioning experiments, pH 7.4, read-out: logD (single replicate)

Compound: CSc1ccccc1 [SCH3 Ph]
- logD7.4 (Ph) [1]: 2.87

Compound: O=S(=O)(CC(F)F)c1ccccn1 [Compound 16, 2-((2,2-Difluoroethyl)sulfonyl)pyridine]
- logD [2, 7]: 0.31
- logD [2, 8]: 0.304
- logD (single replicate) ([2]; pH 7.4): 0,315 and 0,309

Compound: CCS(=O)(=O)c1ccccn1 [Compound 15, 2-(Ethylsulfonyl)pyridine]
- logD7.4 [3]: -0,07
- logD [3]: -0.07
- logD (single sample A, B, C) [3]: -0,032 and -0,070 and -0,118

Compound: CC(F)(F)Sc1ccccn1 [Compound 4, 2-((1,1-Difluoroethyl)thio)pyridine]
- pKa [4]: 2.05
- logD7.4 ([2]; 1-octanol/phosphate buffer pH 7.4, 25 °C, trifluoroethanol reference, 19F NMR, mean of three): 1.84
- logD [2, 7]: 1.82

Compound: FCSc1ccccn1 [Compound 21, 2-((Fluoromethyl)thio)pyridine]
- pKa [4]: 2.43
- stability in aqueous media [5]: decomposes in water; also recorded: decomposed in aqueous media; also recorded: water-unstable

Compound: O=S(=O)(c1ccccn1)C(F)(F)C(F)(F)F [Compound 20, 2-((Perfluoroethyl)sulfonyl)pyridine]
- logD [2, 7]: 2.21

Compound: O=S(=O)(c1ccccn1)C(F)(F)C(F)F [Compound 19, 2-((1,1,2,2-Tetrafluoroethyl)sulfonyl)pyridine]
- logD [2, 7]: 1.43

Compound: O=S(=O)(CC(F)(F)F)c1ccccn1 [Compound 18, 2-((2,2,2-Trifluoroethyl)sulfonyl)pyridine]
- logD [2, 7]: 0.81
- logD [2, 8]: 0.813
- logD (single replicate) ([2]; pH 7.4): 0,802 and 0,803

Compound: FC(F)Sc1ccccn1 [Compound 2, 2-((Difluoromethyl)thio)pyridine]
- pKa [4]: 1.7
- logD [2, 7]: 1.95

Compound: FC(F)(F)CSc1ccccn1 [Compound 8, 2-((2,2,2-Trifluoroethyl)thio)pyridine]
- pKa [4]: 1.49
- logD [2, 7]: 2.71

Compound: CC(F)(F)Sc1ccccc1 [SCF2CH3 Ph]
- logD7.4 (Ph) [1]: 3.38

Compound: FC(F)C(F)(F)Sc1ccccn1 [Compound 7, 2-((1,1,2,2-Tetrafluoroethyl)thio)pyridine]
- pKa [4]: 1.33
- logD [2, 7]: 2.27

Compound: CC(F)(F)S(=O)(=O)c1ccccn1 [Compound 17, 2-((1,1-Difluoroethyl)sulfonyl)pyridine]
- logD [2, 7]: 0.79
- logD [2, 8]: 0.786
- logD (single replicate) ([2]; pH 7.4): 0,784 and 0,794

Compound: O=S(=O)(c1ccccn1)C(F)F [Compound 12, 2-((Difluoromethyl)sulfonyl)pyridine]
- logD [2, 7]: 0.55
- logD [2, 8]: 0.576
- logD (single replicate) ([2]; pH 7.4): 0,541 and 0,538

Compound: O=S(=O)(CCF)c1ccccn1 [Compound 14, 2-((2-Fluoroethyl)sulfonyl)pyridine]
- logD [2, 7]: -0.21
- logD (single replicate) ([2]; pH 7.4): -0,199 and -0,158 and -0,274

Compound: O=S(=O)(CF)c1ccccn1 [Compound 11, 2-((Fluoromethyl)sulfonyl)pyridine]
- logD [2, 7]: 0.1
- logD [2, 8]: 0.093
- logD (single replicate) ([2]; pH 7.4): 0,112 and 0,084

Compound: CSc1ccccn1 [Compound 1, 2-(methylthio)pyridine]
- logD [3]: 1.69
- pKa [6]: 3.69

Compound: FC(F)(F)CSc1ccccc1 [SCH2CF3 Ph]
- logD7.4 (Ph) [1]: 3.30

Compound: CCSc1ccccn1 [Compound 5, 2-(Ethylthio)pyridine]
- logD7.4 [3]: 2,26
- logD [3]: 2.26
- pKa [6]: 3.68

Compound: FCCSc1ccccn1 [Compound 22]
- pKa [4]: 3.08
- stability in aqueous media [5]: decomposes in water; also recorded: decomposed in aqueous media; also recorded: water-unstable

Compound: CCSc1ccccc1 [SCH2CH3 Ph]
- logD7.4 (Ph) [1]: 3.42

Compound: FC(F)CSc1ccccn1 [Compound 6, 2-((2,2-Difluoroethyl)thio)pyridine]
- pKa [4]: 2.43
- logD [2, 7]: 2.26

Compound: FC(F)(F)Sc1ccccc1 [SCF3 Ph]
- logD7.4 (Ph) [1]: 3.70

Compound: O=S(=O)(c1ccccn1)C(F)(F)F [Compound 13, 2-((Trifluoromethyl)sulfonyl)pyridine]
- logD [2, 7]: 1.43

Compound: FC(F)(F)C(F)(F)Sc1ccccn1 [Compound 9, 2-((Perfluoroethyl)thio)pyridine]
- pKa [4]: 0.94
- logD [2, 7]: 2.76

Compound: CS(=O)(=O)c1ccccn1 [Compound 10, 2-(Methylsulfonyl)pyridine]
- logD [3]: -0.43
- logD (single sample A, B, C) [3]: -0,407 and -0,414 and -0,469

Compound: FC(F)(F)Sc1ccccn1 [Compound 3, 2-((Trifluoromethyl)thio)pyridine]
- pKa [4]: 0.97
- logD [2, 7]: 2.13
